Tests used:
[1] = tested on: NF-κB; experiment: NF-κB activation by EMSA in primary microglia from WT mice; format: cell-based, mouse; details: peptide 1 h, 1 μM fibrillar Aβ1-42 for 1 h
Experimental: (§1) FIG. 16 (A-F). […] Primary microglia isolated from WT (A) and TLR2 (−/−) (B) mice were treated with different concentrations of wtTIDM peptide for 1 h followed by stimulation with 1 μM fibrillar Aβ1-42 under serum-free condition. After 1 h of stimulation, the activation of NF-κB was monitored by EMSA. WT (C & D) and TLR2 (−/−) (E & F) microglia were treated with different concentrations of wtTIDM and mTIDM peptides for 1 h followed by stimulation with 1 μM fibrillar Aβ1-42 under serum-free condition. After 18 h of stimulation, levels of TNFα (C & E) and IL-1β (D & F) were monitored in supernatants by ELISA (n=2 replicates/condition in 3 independent experiments). ap<0.001 vs control; bp<0.001 vs stimuli by two-sample t-tests.
Nuclear extracts were isolated and EMSA was carried out as described before (22, 23).

[2] = tested on: TNFα and IL-1β; experiment: TNFα and IL-1β ELISA in supernatants of WT primary microglia; format: cell-based, mouse; details: peptide 1 h, 1 μM fibrillar Aβ1-42 for 18 h
Experimental: as §1

[3] = tested on: 5×FAD Tg mice; experiment: Glial activation and NF-κB in hippocampus of 5×FAD Tg mice; format: in vivo, mouse; details: 0.1 mg/kg body wt/2 d intranasal, 30 d
Excerpt: FIG. 5 (A-Q). […] Actin was run as loading control. […] M) Hippocampal sections were immunolabeled with 82E1 mAb. […] Arrowhead indicates 4 kDa Aβ band.
FIG. 18 (A-B). After intranasal delivery, wtTIDM peptide suppresses the activation of NF-κB in the hippocampus of Tg mice. […] After 30 d of treatment, hippocampal extracts of all groups of mice were immunoblotted for phospho-p65 (A). Actin was run as loading control.
FIG. 19. Intranasal delivery of wtTIDM, but not mTIDM, peptide suppresses microglial expression of iNOS in the hippocampus of Tg mice. […] After 30 d of treatment, mice were sacrificed and hippocampal sections were double-labeled for Iba-1 and iNOS. Results represent analysis of two sections from each of six different mice per group.
(§2) B6SJL-Tg (APPSwFlLon,PSEN1*M146L*L286V) 6799Vas/J transgenic (5×FAD or termed here as Tg) mice were purchased from Jackson Laboratories (Bar Harbor, ME). […] Briefly, TIDM peptides were dissolved in 5 μl normal saline, mice were hold in supine position and saline was delivered into one nostril using a pipetman.
Mice were anesthetized with ketamine-xylazine injectables and perfused with PBS and then with 4% (w/v) paraformaldehyde in PBS followed by dissection of the brain from each mouse for immunofluorescence microscopy (23, 59). […] The samples were mounted and observed under an Olympus IX81 fluorescence microscope. […]

[4] = tested on: 5×FAD Tg mice; experiment: Neuronal apoptosis and plasticity-related molecules in hippocampus of 5×FAD Tg mice; format: in vivo, mouse; details: 0.1 mg/kg body wt/2 d intranasal, 30 d
Excerpt: (§3) FIG. 6 (A-N). Intranasal delivery of wtTIDM, but not mTIDM, peptide inhibits neuronal apoptosis in vivo in the hippocampus and improves memory and learning in Tg mice. […] After 30 d of treatment, mice were sacrificed and hippocampal sections were double-labeled for TUNEL & NeuN (A). […] Hippocampal extracts of all groups of mice (n=4) were immunoblotted for cleaved caspase 3 (D). Actin was run as loading control. E) Bands were scanned and values (cleaved caspase 3/Actin) are presented as relative to non-Tg control. […] Protein levels of PSD-95. NR2A and GluR1 were monitored in hippocampal extracts by Western blot (F). Bands were scanned and values (G, PSD-95/Actin; H, NR2A/Actin; I, GluR1/Actin) are presented as relative to non-Tg control. […] Mice were tested for Barnes maze (J, latency; K, number of errors made) and T maze (L, number of positive turns; M, number of negative turns). Short-term memory was also monitored by novel object recognition test, which is represented by discrimination index (N). Eight mice (n=8) were used in each group and results were analyzed by one-way ANOVA.
as §2
It was performed using a commercially available kit (TdT FragEL™, Calbiochem) as described before (10, 22).

[5] = tested on: 5×FAD Tg mice; experiment: Novel object recognition test in 5×FAD Tg mice; format: in vivo, mouse; details: vs untreated Tg or mTIDM-treated Tg mice
Excerpt: as §3
Novel object recognition task was performed to monitor the short term memory as described by others (58) and us (57). Briefly, during training, mice were placed in a square novel box (20 inches long by 8 inches high) surrounded with infrared sensor. […]

[6] = tested on: Tg-Tlr2−/− mice; experiment: Plaques and memory in 5×FAD mice null for Tlr2 (Tg-Tlr2−/−); format: in vivo, mouse; details: 0.1 mg/kg body wt/2 d intranasal, 30 d
Experimental: FIG. 24 (A-H). […] A) Tlr2−/− mice were bred with Tg (5×FAD mice) and representative PCR of Tlr2, App695 and Psen1 transgene DNA expression is shown for 6-month old non-Tg, Tg (5×FAD), Tg-Tlr2−/− (F7), and Tlr2−/− mice. Average body weight (B) and wet brain weight (C) of non-Tg, Tg, Tg-Tlr2−/−, and Tlr2−/− mice. For wet brain weight, the olfactory lobes and brainstem were removed. […] After 30 d of treatment, hippocampal sections were immunolabeled with 6E10 mAb (D). […] Mice were tested for Barnes maze (F, track plot; G, latency; H, number of errors made). Four mice (n=4) were used in each group. NS, not significant by two-sample t-tests.

CC[C@H](C)[C@H](NC(=O)[C@H](CCCCN)NC(=O)[C@@H](NC(=O)[C@H](CCC(N)=O)NC(=O)[C@H](CCCNC(=N)N)NC(=O)[C@@H](N)CC(=O)O)[C@@H](C)CC)C(=O)N[C@@H](Cc1c[nH]c2ccccc12)C(=O)N[C@@H](Cc1ccccc1)C(=O)N[C@@H](CCC(N)=O)C(=O)N[C@@H](CC(N)=O)C(=O)N[C@@H](CCCNC(=N)N)C(=O)N[C@@H](CCCNC(=N)N)C(=O)N[C@@H](CCSC)C(=O)N[C@@H](CCCCN)C(=O)N[C@@H](Cc1c[nH]c2ccccc12)C(=O)N[C@@H](CCCCN)C(=O)N[C@@H](CCCCN)C(=O)N1CCC[C@H]1C(=O)NCC(=O)N[C@@H](C)C(=O)N[C@@H](Cc1c[nH]cn1)C(=O)N[C@@H](CCC(N)=O)C(=O)N[C@@H](CCCCN)C(=O)O [wtTIDM, drqikiwfqnrrmkwkkPGAHQK]
inhibition of fibrillar Aβ1-42-induced activation of NF-κB in WT primary microglia [1]: inhibited | inhibition of fibrillar Aβ1-42-induced production of TNFα and IL-1β in WT microglia [2]: inhibited | Iba-1 and phospho-p65 in the hippocampus [3]: suppression | expression of iNOS in the hippocampus [3]: suppressed | PSD-95, NR2A and GluR1 proteins in the hippocampus [4]: significant restoration | elevated level of cleaved caspase 3 in the hippocampus [4]: reduced | neuronal apoptosis in the hippocampus (TUNEL & NeuN) [4]: attenuated | short-term memory, novel object recognition (discrimination index) [5]: significant improvement | reduction of plaque load and improvement of spatial learning and memory in Tg-Tlr2−/− mice [6]: remained unable to do so

— patent publication US12251422B2, “Compositions and methods for treating neurological and other disorders” (Rush University Medical Center, priority 2018, dated 2025)
